We go through 87 compounds from a melting point compilation (Tetko et al.; mined from patent text by program, amines drawn as free bases though some values may be those of a salt).

Some results are limits rather than exact numbers.

A word on the melting point: it is the temperature of the solid-liquid transition. `COc1ccc2c(c1)C1=C[C@@H](C(=O)NC(C)(C)C)CN(C)[C@@H]1CO2` (relative stereo) displayed a melting point of 188 to 189 °C.

On to `NC(=O)c1cccc(-n2c(=O)n(Cc3cccnc3)c(=O)c3cccnc32)c1`, for which the melting point lay in the range of 219 to 220 °C.

Turning to `CC1(C)C2CC[C@@]1(C)C(C(=O)N1C(=O)OC(C#CC3CC3)(C(F)(F)F)c3cc(Cl)ccc31)C2` (some centres not stated), the melting point lay in the range of 164 to 165 °C. Compound `C[C@@H]1CN(c2nccc(Oc3ccc(NC(=O)c4cc(F)cc(N5CCCCC5)c4)c4ccccc34)n2)C[C@H](C)O1` returned a melting point of 174 to 176 °C. In the case of `Cc1oc(=O)oc1Cn1nnc(-c2ccnc(-c3nnn(Cc4oc(=O)oc4C)n3)c2)n1` it was 150 to 152 °C. As for `Cc1cnc(NCCCNc2ncc(Cc3ccc(C)nc3)c(=O)[nH]2)c(C)c1`, the figure is 104 to 105 °C; as for `COC(=O)c1cccc(C(=O)c2[nH]c3cc(Cl)ccc3c2N)c1`, 187 to 189 °C; as for `Brc1nc(-c2ccccc2)nc2ccccc12`, 132 °C. As for `COC(=O)c1ccc(SCc2cccc(C(F)(F)F)c2)c(C)n1`, the figure is 91 to 93 °C. With `NCc1ccc(-c2csc(N)n2)s1`, the melting point was found to be 189 °C.

Take `CCOC(=O)Cn1c(=O)c(=O)[nH]c2cc(C(F)(F)F)c(-n3ccc(C=NO)c3)cc21`: the melting point was > 250 °C. In the case of `CC(C)(C)OC(=O)NCC(N)C(=O)N1CCCCC1` (configuration not stated) it was 87 to 90 °C; in that of `CCN1CCC(NC(=O)Nc2ccccc2CCc2cc(C(C)(C)C)c(O)c(C(C)(C)C)c2)CC1`, 182 to 184 °C. With `Cc1nc(-c2ccccc2)cc(-c2cccc([N+](=O)[O-])c2)c1NC(=O)NCCN(C)C`, the melting point lay in the range of 159 to 161 °C. In the case of `COC(=O)CSc1ccc2ccc(Oc3c(Cl)cc(C(F)(F)F)cc3OC)cc2c1` it was 115 °C; in that of `Cc1cscc1NC(=S)Nc1c(N)c(F)c(F)c(F)c1F`, 286 to 290 °C. As for `O=C1C(=NO)Nc2c(Br)cccc21`, the figure is > 250 °C; as for `COc1nc(C)nc(NC(=O)NS(=O)(=O)c2ccccc2-c2ccccc2)n1`, 190 to 193 °C; as for `CCCCCCCc1ccc(CC2C=CC(Oc3ccc(C(=O)O)o3)=C3N=C4CCCCC4=C32)cc1` (configuration not stated), 164 to 165 °C. Regarding `CCC1(c2cccc([N+](=O)[O-])c2)C(=O)NC(=O)NC1=O`, the melting point lay in the range of 283 to 284 °C. In turn, `CC(=O)NC[C@H]1CN(c2ccc(N3CCC4(CC3)NCCO4)c(F)c2)C(=O)O1` displayed a melting point of 138 to 140 °C. Consider `Cc1cccc(NC(=O)OCCS(C)(=O)=O)c1CNc1cccn2c(C)c(C)nc12`, for which the melting point lay within 161 to 162 °C. `CN1C(=O)N(c2c(Cl)cccc2Cl)Cc2cnc(NCc3ccc(CN)cc3)nc21` yielded a melting point of 151 to 152 °C.

Turning to `CCCCc1nc2c(N)nc3ccccc3c2n1CCCNC(=O)c1cc2ccccc2cn1`, the melting point is 204 to 205 °C. In the case of `N#Cc1ccc(C(=O)c2ccc(O)c(F)c2)cc1` it was 168 to 170 °C; in that of `CCCc1cc(C(O)=S)cc([N+](=O)[O-])c1-c1ccccc1`, 178 to 180 °C; in that of `CC1c2ccc(F)n2-c2cc(F)c(F)cc2N1S(=O)(=O)c1ccc(O)cc1` (configuration not stated), 184 to 189 °C. As for `O=c1ccc2nc3ccc(F)cc3sc-2c1Cl`, the figure is 250 to 255 °C; as for `CCn1c2ccccc2c2ccncc21`, 195 to 196 °C. In the case of `CCc1nccn1N=Cc1ccccc1` it was 67 to 68 °C; in that of `NC(=O)COc1cccc(CCNS(=O)(=O)c2ccc(Cl)cc2)c1`, 113 °C. `O=c1c(Cl)c(OCc2ccc(F)cc2F)ccn1Cc1cccc2c1CCNC2` showed a melting point of 180 to 184 °C. Compound `CCOC(=O)C1=C(C)NC(COCc2cccnc2)=C(C(=O)OCC)C1c1ccccc1[N+](=O)[O-]` (configuration not stated) showed a melting point of 133 to 135 °C. Consider `COCCOc1ccc(C=O)c(Oc2ncc(C(F)(F)F)cc2Cl)c1`, for which the melting point lay within 80.5 to 81 °C. In the case of `COC(=O)COc1cc(C)ccc1C=O` it was 63 to 64 °C; in that of `c1ccc(C(CCc2c[nH]cn2)c2ccccc2)cc1`, 115 to 117 °C. Regarding `CCOC(=O)c1c(O)c2cc(Cl)ccc2n(C)c1=O`, the melting point was in the range of 141 to 143 °C. As for `C/C=C/c1cc(OC)c2oc(-c3ccc(O)c(OC)c3)c(CO)c2c1`, the figure is 175 to 179 °C; as for `CCOc1ccc(-c2cc(Nc3ccc(OC)c(Cl)c3)nc(NC(C)=O)n2)cc1`, 214 °C. As for `O=C1OC(P(=O)(O)C2OC(=O)c3ccccc32)c2ccccc21` (configuration not stated), the figure is 280 to 285 °C. In the case of `N#CNc1cc(F)ccc1N1CCOCC1` it was 168 to 170 °C; in that of `COc1cc(C(O)CS(C)(=O)=O)cc(OC)c1-n1cccc1` (configuration not stated), 192 °C; in that of `COC(=O)CCC(=O)Nc1ccc2c(=O)n3c(nc2c1)C(=Cc1ccccc1)CC3`, 288 to 291 °C. The compound `CON(C)C(=O)Cc1ccc([N+](=O)[O-])cc1` gave a melting point of 75 to 75.5 °C. In the case of `O=C1CCC(=O)C(c2cccc(Cl)c2)N1` (configuration not stated) it was 144 to 147 °C; in that of `C#CCNC(=O)c1ncn2c1[C@@H]1CCN1C(=O)c1ccccc1-2`, 214 to 215 °C; in that of `COc1ccccc1C1(O[Si](C)(C)C)C(=O)Nc2ccc(Cl)cc21` (configuration not stated), 185 to 187 °C. In the case of `Cc1ccnc(-c2cc(CO)ccn2)c1` it was 110 to 112 °C; in that of `CCCCCCCCCCCCCCCCOc1ccc(OCC(=O)N(Cc2ccccn2)C(C)=O)cc1`, 58 to 59 °C; in that of `O=[N+]([O-])c1ccc(NN=C(c2ccccc2)c2ccccc2)c([N+](=O)[O-])c1`, 232 to 234 °C. As for `CN(C)CCNS(=O)(=O)c1cccc(NC(=O)c2cnn3c(C(F)F)cc(-c4ccc(C(F)(F)F)cc4)nc23)c1`, the figure is 184 °C. The compound `O=C1OCc2cccc(CBr)c21` returned a melting point of 128 to 131 °C. In the case of `O=C1CCC2(c3c[nH]cn3)Cc3ccccc3C12` (configuration not stated) it was 234 to 236 °C; in that of `CCCc1c(OCCCCCC(=O)c2c(C)c(C)c(OC)c(OC)c2C)ccc(C(=O)O)c1O`, 108 to 112 °C.

Take `C=CCN1CCN(C(C#CSc2ccccc2)=Nc2ccc(OC)cc2)CC1`: the melting point worked out at 75 °C. In turn, `CC(C)C(=O)CNC(=O)c1ccccc1` showed a melting point of 78 to 80 °C. As to `O=C(c1ccc(-c2ccccc2)cc1)c1ccc([N+](=O)[O-])cc1`, the melting point lay in the range of 174 to 176 °C. With `CC(C)C1OP(N(CCCCCCN(C2CC(C)(C)NC(C)(C)C2)P2OCC(C)(C)C(C(C)C)O2)C2CC(C)(C)NC(C)(C)C2)OCC1(C)C` (configuration not stated), the melting point lay within 95 to 97 °C. As for `CC(C(=O)O)c1ccc2c(c1)C(=O)C(C(C)C)C2` (configuration not stated), the figure is 130 to 132 °C; as for `Cc1nc2c3cccc(Cl)c3ccn2c1CC(N)=O`, 284 to 286 °C. As for `CCNCC1CCN(c2c(F)c(C)c3c(=O)c(C(=O)O)cn(C4CC4)c3c2F)C1` (configuration not stated), the melting point lay within 198 to 199 °C. As for `Cc1cc(C)c(C(C)(C)O)c(C)c1`, the figure is 106 to 107 °C.

For the compound `CC(=O)NNC1=Nc2sc(Cl)cc2C(c2c(F)cccc2F)=NC1`, the melting point was 257 to 260 °C. `COc1ccc(C(=O)Nc2ccc(-c3ccc(C=O)cc3C)c(C)c2)cc1CCCN(C)C` showed a melting point of 63 to 66 °C. On to `CC(C=CCOC(=O)c1ccc(C(N)=O)cc1)Oc1ccc(Oc2cnc3cc(Cl)ccc3n2)cc1` (configuration not stated), for which the melting point fell in the range of 144 to 148 °C.

In turn, `Nc1nc(NC2Cc3ccccc3N(C(=O)c3ccccc3)C2)c2cn[nH]c2n1` (configuration not stated) gave a melting point of 155 to 164 °C. In the case of `O=S(=O)(Nc1ccc2c(OCc3cccc(-c4ccc(F)cc4)c3)cccc2c1)C(F)(F)F` it was 110 to 112 °C; in that of `Cc1nccc(N2CCC(C(=O)N3CCN(S(=O)(=O)c4ccc(Br)cc4)CC3)CC2)n1`, 200 to 202 °C. `CC(=O)NC1COc2c(C)ccc(N)c2C1=O` (configuration not stated) had a melting point of 178 to 180 °C. As for `N#Cc1ccc(N2C(=O)N(CCCC(=O)O)C3(CCOCC3)C2=O)cc1C(F)(F)F`, the figure is 151 to 152 °C; as for `C#C[C@@](C)(O)CCC1=C(C)C(=O)C(C)=C(C)C1=O`, 80 to 82 °C.

`CC(=O)NCc1cccc(C#N)c1` yielded a melting point of 94 to 96 °C. Turning to `Cc1ccccc1C(=O)Nc1ccc(C(=O)N2Cc3cccn3-c3ccccc32)cc1`, the melting point was in the range of 206 to 207 °C. As for `NC(=O)C1CCN(c2cccc3c2OCCO3)CC1`, the figure is 194 °C; as for `N#Cc1cnn2c1NCC=C2c1cc(Cl)ccc1Cl`, 222 to 223 °C; as for `CN(Cc1ccc(Cl)cc1)C(=O)C12CC3CC(CC(C3)C1)C2`, 65 to 66.5 °C. `CCOC(=O)C(C)(C)NC(=O)c1c(Cl)c2cc(Oc3ccc(C(F)(F)F)cc3)ccc2n1-c1ccc(OC(C)C)cc1` came in with a melting point of 135 to 137 °C. For the compound `CC(C)(C)c1cc(N2CCN(C(=O)c3ccc(N)cc3)C2=O)cc(C(C)(C)C)c1O`, the melting point was > 260 °C. In the case of `COc1ccc(C(=O)c2ccccc2)c(S)c1` it was 74 to 76 °C; in that of `Cc1cc(O)nc2nc(SCc3ccccc3)nn12`, 219 to 220 °C; in that of `OC[C@@H]1OC[C@H](n2c(NC3CC3)nc3cc(Cl)c(Cl)cc32)[C@@H](O)[C@H]1O`, 164 °C. In the case of `CCOC(=O)C1SC(c2ccc3ccccc3c2)=NN1C(=O)CCSC(C)=O` (configuration not stated) it was 107 to 108 °C. Regarding `CCc1ccc(Nc2c(F)c(F)cc(F)c2F)c(CC(=O)O)c1`, the melting point lay in the range of 165 to 169 °C. Turning to `Cn1nc(C(F)(F)F)cc1Oc1cc(C#N)cc(OCc2ccc(F)cc2F)n1`, the melting point amounted to 109 °C.

The compound `CCOC(=O)C1=C(C)NC(CN2C(=O)c3ccccc3C2=O)=C(C(=O)OCC)C1c1ccccc1Cl` (configuration not stated) registered a melting point of 166 °C.

Turning to `COc1ccc2c(c1)c(O)c(C#N)n2-c1ccccc1`, the melting point worked out at 182 °C. As for `NCc1nnc(-c2ncn3c2[C@@H]2CCN2C(=O)c2sccc2-3)o1`, the figure is 233 to 235 °C.
